Laboratory results: patent EP0610377B1, “TRI-SUBSTITUTED TETRAHYDROFURAN ANTIFUNGALS” (SCHERING CORPORATION, priority 1991, dated 1993)

Tests used:
Type in all cases: in vivo
Aspergillus flavus [1] = experiment: Aspergillus flavus pulmonary infection model in compromised mice, oral treatment; conditions: for Percent Survival After 11 Days / PERCENT SURVIVAL AFTER 5 DAYS (5D): CF-1 mice; for PERCENT SURVIVAL AFTER 5 DAYS (5D): head prints 50 mg/kg (third dose column, c3), in PEG-200 daily for 4 days
Aspergillus flavus [2] = experiment: as above; conditions: for %SURVIVAL / %ANIMALS NEG: 18 days post infection; for %SURVIVAL: compromised CF-1 mice; for %ANIMALS NEG: negative = <10 colonies
Description: The in vivo oral antifungal activity of the compounds of Example 23-26 were compared to those of itraconazole, fluconazole and saperconazole in an Aspergillus pulmonary infection model in mice. The procedure of David Loebenberg et al. entitled "Sch 42427, The Active Enantiomer of Antifungal agent Sch 39304: In Vitro and In Vivo Activity" Antimicrobial Agents and Chemotherapy (1992), 36 498-501 was used. The Aspergillus flavus pulmonary model was run in the following manner Male, CF-1 mice weighing 20 grams were compromised with cortisone acetate (100 mg/kg), administered subcutaneously, once daily for 3 days. In addition, to prevent bacterial disease, tetracycline HCL (300 mg/1) was added to the drinking water and given ad libitum. On day 2 of compromising, mice were infected in an inhalation chamber, first described by Piggot and Emmons in 1960 and modified by us. The chamber is a 1 liter pyrex, thick-walled flask with 8 tubular side-arms that extend into the flask. Each side-arm is a pyrex tube of 14 cm length, constricted to a 1 cm opening inside the flask. The bottom of the flask was covered with a malt extract agar medium on which a sporulating culture of A. flavus ATCC 24133 was grown for 13 days at room temperature. The top of the flask was closed with a #10 stopper through which passed a glass tube attached by rubber tubing to a 60 mL syringe. Mice were placed in each of the side arms and pushed to the bottoms so that their nares extended beyond the open end of the tube and over the agar. Cotton plugs were then inserted behind the mice to hold them in place. By pumping the 60 mL syringe twice, air was forced over the culture and produced a cloud of spores. Mice were exposed to the spore cloud for one minute. Within 15-30 minutes after exposure, a number of mice were sacrificed and lung tissue samples homogenized for culture to determine the number of inhaled conidia. Oral treatment began 24 h post-infection with doses of 5 to 250 mg of drug/kg in ethanol; vehicle (115 ml of Emulphor EL-719P, GAF, Wayne, NJ; and 5 ml of 20% w/v lactic acid per liter of water), 10:90 v/v, once daily for 4 days.
The procedure of Example 31 was used to compare the in vivo oral antifungal activity of (±)-5R/S-(cis)-4-[4-[4-[4-[[5-(2,4-difluorophenyl)-5-(1H-1,2,4-triazol-1-ylmethyl) tetrahydrofuran-3-yl]methoxy-phenyl-1-piperazinyl]phenyl]-2,4-dihydro-2[(R/S)-(1-methylpropyl)]-3H-1,2,4-triazol-3-one with (±)-2R/S-(cis)-1-[4-[[2-(2,4-difluorophenyl)-2-(1H-1,2,4-triazol-1-ylmethyl) tetrahydro-4-furanyl]methoxy]phenyl]-4-(1-methylethyl)piperazine of Example 68 of USP 5,039,676 in an Aspergillus pulmonary infection model described in Example 31. […]
The procedures of Examples 31 and 34 were used.

C. albicans C-43 = experiment: Candida systemic model in CF1 mice infected IV with C. albicans C-43, oral treatment; conditions: for %SURVIVAL: day 4 post-infection; for CFUs (GM): day 4
Method: The compounds of Examples 23-26 and itraconazole, fluconazole, and saperconazole were tested for in vivo oral antifungal activity in a Candida systemic model using CF1 male mice , average weight 20 g, Harlan Sprague Dawley, Inc., Indianapolis, Ind. infected by IV injection into the tail vein of C. albicans C-43 (5 million CFUs). […] Oral efficacy was measured after four (4) days by percent survival and by the number of organisms remaining in the kidneys i.e., the Colony Forming Units (CFUs). The mice were sacrificed and the kidneys of individual mice were homogenized in sterile saline, diluted and spread onto Mycosel agar. Colony counts were determined after 48 hours at 37°C. For calculation of geometric means, mice that died during the experiment were considered to have 10^9 CFUs/kidneys (based on numerous previous experiments).

C. albicans C-65 = experiment: Candida systemic model in normal and compromised CF1 mice infected with C. albicans C-65, oral treatment; conditions: for % S (Percent Survival): day 4 post-infection; for CFUs (GM): day 4, geometric mean of the logarithms of CFU in the kidneys
Method: The compounds of Examples 23-26 and itraconazole, fluconazole, and saperconazole were tested for in vivo oral antifungal activity in a Candida systemic model using CF1 male mice , average weight 20 g, Harlan Sprague Dawley, Inc., Indianapolis, Ind. infected by IV injection into the tail vein of C. albicans C-43 (5 million CFUs). The drugs were dissolved in polyethylene glycol-200 (PEG-200) and tested by orally administering 50, 25 and 10 mpk of each drug 4 hours post infection and once daily for 3 more days. Oral efficacy was measured after four (4) days by percent survival and by the number of organisms remaining in the kidneys i.e., the Colony Forming Units (CFUs). The mice were sacrificed and the kidneys of individual mice were homogenized in sterile saline, diluted and spread onto Mycosel agar. Colony counts were determined after 48 hours at 37°C. For calculation of geometric means, mice that died during the experiment were considered to have 10^9 CFUs/kidneys (based on numerous previous experiments).
The compounds of Examples 23-24 and itraconazole, fluconazole, were tested for in vivo oral antifungal anctivity in a Candida systemic model using normal and compromised CF1 mice infected with C. albicans C-65 (5 million CFUs). The procedure of Example 33 was followed. The drugs were dissolved in polyethylene glycol-200 ("PEG-200) at room temperature and tested by orally administering 100, 50, 25, 10 and 1 mpk of each drug. Oral efficacy was measured by percent survival and by the number of organisms remaining in the kidneys (CFUs) after four days. […] The pharmaceutical composition of the preferred compound of formula IIb of Eample 24 in hydroxypropyl beta cyclodextrin ("HPβCD") having 7.4 hydroxypropyl groups per HPβCD (obtained from Pharmatec, Inc., Alachua, FL 32615) was prepared by admixing the appropriate amount of the compound IIa with a 40% (w/v) solution of HPβCD (4 g of HPβCD per 10 mL of purified water). Gentle heating was used to form a clear solution. For the 10 mpk dose, 12 mg of Ha was added to 6 mL of a 40% w/v solution of HPβCD. For dilutions, sterile water was added to the solution with mixing. The pharmaceutical composition of itraconazole and the Pharmatec HPβCD described above was prepared as follows. Propylene glycol (10 mL) was admixed with 0.95 mL of concentrated HCI at 40°-45°C with stirring. Itraconazole (2.5 g) was added thereto and stirring was continued until homogeneous. The mixture so formed was cooled to 20° to 30°C and admixed with a solution of 60 g of HPβCD in 40 mL of purified water to form a clear solution. The pH was adjusted to a value of 1.9-2.1 with 10N NaOH and sufficient purified water added (with mixing) to a final volume of 100 mL. For dilutions, sterile water was added to the itraconazole - HPβCD.

[3] = 50 mg/kg PO in PEG-200, OD for 4 days
[4] = 100 mg/kg PO in PEG-200, OD for 4 days
[5] = 200 mg/kg PO in PEG-200, OD for 4 days
[6] = 33 mg/kg PO once a day for 4 days
[7] = 66 mg/kg PO once a day for 4 days
[8] = 100 mg/kg PO once a day for 4 days
[9] = 50 MPK PO in PEG-200, 1 a day x 4 days
[10] = 50 MPK PO in PEG-200, geometric mean of the logarithms of CFU remaining in the kidneys (dead mice counted as 10^9)

CCC(C)n1ncn(-c2ccc(N3CCN(c4ccc(OC[C@@H]5CO[C@@](Cn6cncn6)(c6ccc(F)cc6F)C5)cc4)CC3)cc2)c1=O (mixture of isomers) [Compound 1 of Table III of Examples 34, (±)-5R/S-(cis)-4-[4-[4-[4-[[5-(2,4-difluorophenyl)-5-(1H-1,2,4-triazol-1-ylmethyl)tetrahydrofuran-3-yl]methoxyphenyl-1-piperazinyl]phenyl]-2,4-dihydro-2[(RS)-(1-methylpropyl)]-3H-1,2,4-triazol-3-one]
Percent Survival After 11 Days (Aspergillus flavus [1]; [3]): 16.7 | Percent Survival After 11 Days (Aspergillus flavus [1]; [4]): 41.7 | Percent Survival After 11 Days (Aspergillus flavus [1]; [5]): 50.0 | PERCENT SURVIVAL AFTER 5 DAYS (5D) (Aspergillus flavus [1]): 50

CC(C)N1CCN(c2ccc(OC[C@@H]3CO[C@@](Cn4cncn4)(c4ccc(F)cc4F)C3)cc2)CC1 (racemic) [Example 68 of US Patent 5,039,676, (±)-2R/S-(cis)-1-[4-[[2-(2,4-difluorophenyl)-2-(1H-1,2,4-triazol-1-ylmethyl)tetrahydro-4-furanyl]methoxy]phenyl]-4-(1-methylethyl)piperazine, reference compound]
oral activity in the Aspergillus pulmonary mouse model (Aspergillus flavus [2]; PO, result in words (active / inactive)): inactive | Percent Survival After 11 Days (Aspergillus flavus [1]; [3]): 0 | Percent Survival After 11 Days (Aspergillus flavus [1]; [4]): 0 | Percent Survival After 11 Days (Aspergillus flavus [1]; [5]): 0

CC[C@H](C)n1ncn(-c2ccc(N3CCN(c4ccc(OC[C@H]5CO[C@](Cn6cncn6)(c6ccc(F)cc6F)C5)cc4)CC3)cc2)c1=O [Example 25, (+)-[(5S)-cis]-4-[4-[4-[4-[[5-(2,4-Difluorophenyl)-5-(1H-1,2,4-triazol-1-ylmethyl)tetrahydrofuran-3-yl]methoxy]phenyl]-1-piperazinyl]phenyl]-2,4-dihydro-2-[(1S)-(1-methylpropyl)]-3H-1,2,4-triazol-3-one]
%SURVIVAL (Aspergillus flavus [2]; [6]): 0% | %ANIMALS NEG (Aspergillus flavus [2]; [6]): 0% | %SURVIVAL (Aspergillus flavus [2]; [7]): 0% | %ANIMALS NEG (Aspergillus flavus [2]; [7]): 0% | %SURVIVAL (Aspergillus flavus [2]; [8]): 10% | %ANIMALS NEG (Aspergillus flavus [2]; [8]): 0% | %SURVIVAL (Aspergillus flavus [1]; 33 mg/kg PO [3RX/DAY] for 4 days, 18 days post infection, compromised CF-1 mice): 20% | %ANIMALS NEG (Aspergillus flavus [1]; 33 mg/kg PO [3RX/DAY] for 4 days, 18 days post infection, negative = <10 colonies): 10% | %SURVIVAL (C. albicans C-43; 10 MPK PO in PEG-200, 1 a day x 4 days): 0% | CFUs (GM) (C. albicans C-43; 10 MPK PO in PEG-200, geometric mean of the logarithms of CFU remaining in the kidneys (dead mice counted as 10^9)): 9.00 | %SURVIVAL (C. albicans C-43; 25 MPK PO in PEG-200, 1 a day x 4 days): 0% | CFUs (GM) (C. albicans C-43; 25 MPK PO in PEG-200, geometric mean of the logarithms of CFU remaining in the kidneys (dead mice counted as 10^9)): 9.00 | %SURVIVAL (C. albicans C-43; [9]): 0% | CFUs (GM) (C. albicans C-43; [10]): 9.00

CCC(C)n1ncn(-c2ccc(N3CCN(c4ccc(OC[C@H]5CO[C@](Cn6cncn6)(c6ccc(F)cc6F)O5)cc4)CC3)cc2)c1=O (some centres unmarked) [Saperconazole, reference compound]
%SURVIVAL (Aspergillus flavus [2]; [8]): 0% | %ANIMALS NEG (Aspergillus flavus [2]; [8]): 0% | PERCENT SURVIVAL AFTER 5 DAYS (5D) (Aspergillus flavus [1]): 50 | %SURVIVAL (C. albicans C-43; [9]): 20% | CFUs (GM) (C. albicans C-43; [10]): 8.20

OC(Cn1cncn1)(Cn1cncn1)c1ccc(F)cc1F [Fluconazole, reference compound]
%SURVIVAL (Aspergillus flavus [2]; [8]): 10% | %ANIMALS NEG (Aspergillus flavus [2]; [8]): 0% | % S (Percent Survival) (C. albicans C-65; 600 Rads Mice (compromised), 10 MPK PO in PEG-200, 1/day x 4 days): 20% | CFUs (GM) (C. albicans C-65; 600 Rads Mice (compromised), 10 MPK PO in PEG-200): 8.01 | % S (Percent Survival) (C. albicans C-65; 600 Rads Mice (compromised), 25 MPK PO in PEG-200, 1/day x 4 days): 50% | CFUs (GM) (C. albicans C-65; 600 Rads Mice (compromised), 25 MPK PO in PEG-200): 6.91 | % S (Percent Survival) (C. albicans C-65; Normal Mice, 1 MPK PO in PEG-200, 1/day x 4 days): 60% | CFUs (GM) (C. albicans C-65; Normal Mice, 1 MPK PO in PEG-200): 5.81 | % S (Percent Survival) (C. albicans C-65; Normal Mice, 10 MPK PO in PEG-200, 1/day x 4 days): 80% | CFUs (GM) (C. albicans C-65; Normal Mice, 10 MPK PO in PEG-200): 5.35 | %SURVIVAL (C. albicans C-43; 1 MPK PO in ETOH/Mon, 1 a day x 4 days): 70% | CFUs (GM) (C. albicans C-43; 1 MPK PO in ETOH/Mon, geometric mean of the logarithms of CFU remaining in the kidneys): 6.58 | %SURVIVAL (C. albicans C-43; 10 MPK PO in ETOH/Mon, 1 a day x 4 days): 90% | CFUs (GM) (C. albicans C-43; 10 MPK PO in ETOH/Mon, geometric mean of the logarithms of CFU remaining in the kidneys): 5.68
